Like-named read-outs stand apart in the source and are kept apart here. Numbered stars: 1 amine (or outer) side, 2 acyl side, 3 side chain; on linkers, the order of the positions; unused ones are H or OH. Bridge positions count the residues as written; N and C are the ends. Square brackets hold non-standard residues; d marks the D form. Peptide text beside a SMILES is read from it. Trp(βS-Me,7-OMe) = COc1cccc2c([C@H](C)[C@H](N)C(=O)O)c[nH]c12; Morpholine(3S-CO,6,6-Me2) = CC1(C)CN[C@H](C(=O)O)CO1; Trp(7-Cl) = N[C@@H](Cc1c[nH]c2c(Cl)cccc12)C(=O)O; Phe(3-COOH) = N[C@@H](Cc1cccc(C(=O)O)c1)C(=O)O; Phe(4-CONH2) = NC(=O)c1ccc(C[C@H](N)C(=O)O)cc1; Phe(4-COOH) = N[C@@H](Cc1ccc(C(=O)O)cc1)C(=O)O; Trp(7-aza) = N[C@@H](Cc1c[nH]c2ncccc12)C(=O)O; Phe(4-CH2NH2) = NCc1ccc(C[C@H](N)C(=O)O)cc1; 3Pal(6-OMe) = COc1ccc(C[C@H](N)C(=O)O)cn1; Pip(5R-OH) = O=C(O)[C@@H]1CC[C@@H](O)CN1; X13 = O=C([C@H]1CC[C@@H](N[*:1])C1)[*:2]; X1 = O=C([C@@H]1CC[C@H](N[*:1])C1)[*:2]; Ala(2-furyl) = N[C@@H](Cc1ccco1)C(=O)O; Dap(CONH2) = NC(=O)NC[C@H](N)C(=O)O; Lys(Me2) = CN(C)CCCC[C@H](N)C(=O)O; Val(3-OH) = CC(C)(O)[C@H](N)C(=O)O; Pip(4-aza) = O=C(O)[C@@H]1CNCCN1; 4Pal = N[C@@H](Cc1ccncc1)C(=O)O; NMeE = CN[C@@H](CCC(=O)O)C(=O)O; X33 = N#CCCN(CC(=O)[*:2])[*:1]; X39 = C[C@H](C(=O)[*:1])[*:2]; Pip = O=C(O)[C@@H]1CCCCN1; αMeS = C[C@](N)(CO)C(=O)O; Nle = CCCC[C@H](N)C(=O)O; Sar = CNCC(=O)O
Legend:
[1] = biological target: T1, TNFα-induced NF-κB signal transduction pathway (TNFR1 signaling) in THP-1 cells (Homo sapiens, UniProt P19438); test: THP-1 Lucia NF-κB reporter cell assay, inhibition of TNFα-induced NF-κB signaling; type: cell-based; conditions: THP-1 NF-κB Lucia reporter cells, 10 ng/mL TNFα, 16-18 h, secreted luciferase; read-out: THP-1 IC50
T1 sequence (P19438 30-455): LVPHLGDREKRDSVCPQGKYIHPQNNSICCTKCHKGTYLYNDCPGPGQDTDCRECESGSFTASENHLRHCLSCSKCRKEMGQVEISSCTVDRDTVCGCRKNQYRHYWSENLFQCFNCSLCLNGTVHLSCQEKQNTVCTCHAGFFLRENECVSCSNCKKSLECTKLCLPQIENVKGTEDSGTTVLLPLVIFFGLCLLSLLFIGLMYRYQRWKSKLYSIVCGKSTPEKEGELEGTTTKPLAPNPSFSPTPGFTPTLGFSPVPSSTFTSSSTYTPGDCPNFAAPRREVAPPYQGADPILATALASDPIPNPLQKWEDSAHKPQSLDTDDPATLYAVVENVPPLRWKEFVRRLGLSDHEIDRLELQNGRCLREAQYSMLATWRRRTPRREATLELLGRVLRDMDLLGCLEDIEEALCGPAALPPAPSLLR
Outline: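 Macrocyclic peptides were preincubated 1 h at 37 °C with THP-1 NF-κB-Lucia reporter cells (20,000 cells/well) in antibiotic-free RPMI 1640/10% FBS, then stimulated with 10 ng/mL human TNFα overnight (16-18 h). Secreted luciferase in supernatant was read by luminescence; IC50 from 4-parameter logistic fits.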

[2] = biological target: T2, human soluble TNFR1 (sTNFR1) (Homo sapiens, UniProt P19438); test: Human sTNFR1-peptide displacement assay (LanthaScreen Eu TR-FRET binding assay)
T2 construct: made in house; host or cells: Sf21 (baculovirus)
T2 sequence (P19438 with tags, fused parts or gaps): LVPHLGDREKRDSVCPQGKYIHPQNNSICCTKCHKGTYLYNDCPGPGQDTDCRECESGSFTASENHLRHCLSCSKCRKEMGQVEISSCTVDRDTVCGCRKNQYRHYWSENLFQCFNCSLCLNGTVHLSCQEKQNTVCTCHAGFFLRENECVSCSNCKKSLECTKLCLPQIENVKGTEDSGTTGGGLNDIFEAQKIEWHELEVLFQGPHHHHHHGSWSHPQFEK
Outline: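 Readout is the 665/615 nm TR-FRET ratio (Eu anti-His donor, streptavidin-Alexa647 acceptor), normalized to DMSO and saturating displacer, fit by Morrison-based five-parameter logistic for Kd^app. His-tagged sTNFR1 (1-211) prebound to 100 nM biotinylated peptide SEQ ID NO.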

[3] = displacement of biotinylated peptide SEQ ID NO. 1 from sTNFR1, 20 point titration, 5-parameter fit based on Morrison equation (tight binding), read-out: TR-FRET Kd^app
[4] = displacement of biotinylated peptide SEQ ID NO. 1 from sTNFR1, weaker binders, 10 pts titration, 4-parameter logistic model, read-out: TR-FRET, IC50

Structure (SMILES)	IC50 [1]	Kd [2, 3]	IC50 [2, 4]	IC50 [2]	Kd [2]
CCCC[C@@H]1NC(=O)[C@H]2CC[C@H](C2)NC(=O)[C@H]([C@@H](C)c2c[nH]c3c(OC)cccc23)NC(=O)CN(C)C(=O)[C@H](Cc2ccc(O)cc2)NC(=O)[C@H](Cc2ccc(C(N)=O)cc2)NC(=O)[C@](C)(CO)NC(=O)[C@H](Cc2c[nH]c3c(Cl)cccc23)NC(=O)[C@H](Cc2ccncc2)NC(=O)[C@H](CC(N)=O)NC(=O)[C@H](CCC(=O)O)N(C)C(=O)[C@H](Cc2c[nH]c3ccccc23)NC(=O)[C@@H]2COC(C)(C)CN2C(=O)[C@H](Cc2ccncc2)NC1=O [SEQ ID NO. 214] (cyclo([4Pal][Trp(7-Cl)][αMeS][Phe(4-CONH2)]Y[Sar][Trp(βS-Me,7-OMe)][X13][Nle][4Pal][Morpholine(3S-CO,6,6-Me2)]W[NMeE]N))	3.7 nM	0.61 nM	0.95 nM	–	–
CCCC[C@@H]1NC(=O)CSC[C@@H](C(N)=O)NC(=O)[C@H]([C@@H](C)c2c[nH]c3c(OC)cccc23)NC(=O)CN(C)C(=O)[C@H](Cc2ccc(O)cc2)NC(=O)[C@H](Cc2ccc(C(=O)O)cc2)NC(=O)[C@](C)(CO)NC(=O)[C@H](Cc2c[nH]c3c(Cl)cccc23)NC(=O)[C@H](Cc2ccncc2)NC(=O)[C@H](CC(N)=O)NC(=O)[C@H](CCC(=O)O)N(C)C(=O)[C@H](Cc2c[nH]c3ncccc23)NC(=O)[C@H](C(C)(C)O)NC(=O)[C@H](Cc2c[nH]cn2)NC1=O [SEQ ID NO. 217] ({CH2CO}-[Nle]H[Val(3-OH)][Trp(7-aza)][NMeE]N[4Pal][Trp(7-Cl)][αMeS][Phe(4-COOH)]Y[Sar][Trp(βS-Me,7-OMe)]C-NH2; thioether N-14)	4.4 nM	–	–	1 nM	0.73 nM
CCCC[C@@H]1NC(=O)[C@@H]2CC[C@@H](C2)NC(=O)[C@H]([C@@H](C)c2c[nH]c3c(OC)cccc23)NC(=O)CN(C)C(=O)[C@H](Cc2ccc(O)cc2)NC(=O)[C@H](Cc2ccc(C(=O)O)cc2)NC(=O)[C@](C)(CO)NC(=O)[C@H](Cc2c[nH]c3c(Cl)cccc23)NC(=O)[C@H](Cc2ccncc2)NC(=O)[C@H](CNC(N)=O)NC(=O)[C@H](CCC(=O)O)N(C)C(=O)[C@H](Cc2c[nH]c3ccccc23)NC(=O)[C@@H]2CNCCN2C(=O)[C@H](Cc2ccncc2)NC1=O [SEQ ID NO. 225] (cyclo([4Pal][Trp(7-Cl)][αMeS][Phe(4-COOH)]Y[Sar][Trp(βS-Me,7-OMe)][X1][Nle][4Pal][Pip(4-aza)]W[NMeE][Dap(CONH2)]))	0.9 nM	–	–	–	0.27 nM
CCCC[C@@H]1NC(=O)CSC[C@@H](C(N)=O)NC(=O)[C@H]([C@@H](C)c2c[nH]c3c(OC)cccc23)NC(=O)CN(C)C(=O)[C@H](Cc2ccc(O)cc2)NC(=O)[C@H](Cc2ccc(C(=O)O)cc2)NC(=O)[C@](C)(CO)NC(=O)[C@H](Cc2c[nH]c3c(Cl)cccc23)NC(=O)[C@H](Cc2ccncc2)NC(=O)[C@H](CC(N)=O)NC(=O)CN(CCC#N)C(=O)[C@H](Cc2c[nH]c3ncccc23)NC(=O)[C@@H]2CCCCN2C(=O)[C@H](Cc2ccncc2)NC1=O [SEQ ID NO. 228] ({CH2CO}-[Nle][4Pal][Pip][Trp(7-aza)][X33]N[4Pal][Trp(7-Cl)][αMeS][Phe(4-COOH)]Y[Sar][Trp(βS-Me,7-OMe)]C-NH2; thioether N-14)	4 nM	–	–	0.7 nM	0.64 nM
CCCC[C@@H]1NC(=O)CSC[C@@H](C(N)=O)NC(=O)[C@H]([C@@H](C)c2c[nH]c3c(OC)cccc23)NC(=O)CN(C)C(=O)[C@H](Cc2ccc(O)cc2)NC(=O)[C@H](Cc2ccc(C(=O)O)cc2)NC(=O)[C@](C)(CO)NC(=O)[C@H](Cc2c[nH]c3c(Cl)cccc23)NC(=O)[C@H](Cc2ccco2)NC(=O)[C@H](CC(N)=O)NC(=O)[C@H]2CCCN2C(=O)[C@H](Cc2c[nH]c3ccccc23)NC(=O)[C@@H]2CNCCN2C(=O)[C@H](Cc2ccncc2)NC1=O [SEQ ID NO. 236] ({CH2CO}-[Nle][4Pal][Pip(4-aza)]W[dP]N[Ala(2-furyl)][Trp(7-Cl)][αMeS][Phe(4-COOH)]Y[Sar][Trp(βS-Me,7-OMe)]C-NH2; thioether N-14)	4.2 nM	–	–	0.9 nM	–
COc1cccc2c([C@H](C)[C@@H]3NC(=O)CN(C)C(=O)[C@H](Cc4ccc(O)cc4)NC(=O)[C@H](Cc4ccc(C(N)=O)cc4)NC(=O)[C@](C)(CO)NC(=O)[C@H](Cc4c[nH]c5c(Cl)cccc45)NC(=O)[C@H](Cc4ccncc4)NC(=O)[C@H](CC(N)=O)NC(=O)[C@H](CCC(=O)O)N(C)C(=O)[C@H](Cc4c[nH]c5ccccc45)NC(=O)[C@@H]4CC[C@@H](O)CN4C(=O)[C@H](Cc4ccncc4)NC(=O)[C@H](CCCCN(C)C)NC(=O)[C@@H]4CC[C@@H](C4)NC3=O)c[nH]c12 [SEQ ID NO. 238] (cyclo([4Pal][Trp(7-Cl)][αMeS][Phe(4-CONH2)]Y[Sar][Trp(βS-Me,7-OMe)][X1][Lys(Me2)][4Pal][Pip(5R-OH)]W[NMeE]N))	0.7 nM	–	–	–	0.12 nM
CCCC[C@@H]1NC(=O)[C@@H]2CC[C@@H](C2)NC(=O)[C@H]([C@@H](C)c2c[nH]c3c(OC)cccc23)NC(=O)CN(C)C(=O)[C@H](Cc2ccc(O)cc2)NC(=O)[C@H](Cc2ccc(C(=O)O)cc2)NC(=O)[C@](C)(CO)NC(=O)[C@H](Cc2c[nH]c3c(Cl)cccc23)NC(=O)[C@H](Cc2ccncc2)NC(=O)[C@H](CC(N)=O)NC(=O)[C@H](CCC(=O)O)N(C)C(=O)[C@H](Cc2c[nH]c3ccccc23)NC(=O)[C@@H]2CNCCN2C(=O)[C@H](Cc2ccc(OC)nc2)NC1=O [SEQ ID NO. 241] (cyclo([4Pal][Trp(7-Cl)][αMeS][Phe(4-COOH)]Y[Sar][Trp(βS-Me,7-OMe)][X1][Nle][3Pal(6-OMe)][Pip(4-aza)]W[NMeE]N))	1.4 nM	–	–	–	0.24 nM
CCCC[C@@H]1NC(=O)CSC[C@@H](C(N)=O)NC(=O)[C@H]([C@@H](C)c2c[nH]c3c(OC)cccc23)NC(=O)CN(C)C(=O)[C@H](Cc2ccc(O)cc2)NC(=O)[C@H](Cc2cccc(C(=O)O)c2)NC(=O)[C@](C)(CO)NC(=O)[C@H](Cc2c[nH]c3c(Cl)cccc23)NC(=O)[C@H](Cc2ccncc2)NC(=O)[C@H](CC(N)=O)NC(=O)[C@H](CCC(=O)O)N(C)C(=O)[C@H](Cc2c[nH]c3ccccc23)NC(=O)[C@@H]2CNCCN2C(=O)[C@H](Cc2ccncc2)NC1=O [SEQ ID NO. 249] ({CH2CO}-[Nle][4Pal][Pip(4-aza)]W[NMeE]N[4Pal][Trp(7-Cl)][αMeS][Phe(3-COOH)]Y[Sar][Trp(βS-Me,7-OMe)]C-NH2; thioether N-14)	4.4 nM	–	–	1 nM	–
CCCC[C@@H]1NC(=O)[C@@H](C)SC[C@@H](C(N)=O)NC(=O)[C@H]([C@@H](C)c2c[nH]c3c(OC)cccc23)NC(=O)CN(C)C(=O)[C@H](Cc2ccc(O)cc2)NC(=O)[C@H](Cc2ccc(C(N)=O)cc2)NC(=O)[C@](C)(CO)NC(=O)[C@H](Cc2c[nH]c3c(Cl)cccc23)NC(=O)[C@H](Cc2ccncc2)NC(=O)[C@H](CC(N)=O)NC(=O)[C@H](CCC(=O)O)N(C)C(=O)[C@H](Cc2c[nH]c3ncccc23)NC(=O)[C@H](CO)NC(=O)[C@H](Cc2ccc(CN)cc2)NC1=O [SEQ ID NO. 250] ([Nle][Phe(4-CH2NH2)]S[Trp(7-aza)][NMeE]N[4Pal][Trp(7-Cl)][αMeS][Phe(4-CONH2)]Y[Sar][Trp(βS-Me,7-OMe)]C-NH2; linker N-14 via X39)	2.4 nM	0.17 nM	0.27 nM	–	–
CCCC[C@@H]1NC(=O)CSC[C@@H](C(N)=O)NC(=O)[C@H]([C@@H](C)c2c[nH]c3c(OC)cccc23)NC(=O)CN(C)C(=O)[C@H](Cc2ccc(C(=O)O)cc2)NC(=O)[C@H](Cc2ccc(C(=O)O)cc2)NC(=O)[C@](C)(CO)NC(=O)[C@H](Cc2c[nH]c3c(Cl)cccc23)NC(=O)[C@H](Cc2ccncc2)NC(=O)[C@H](CC(N)=O)NC(=O)[C@H](CCC(=O)O)N(C)C(=O)[C@H](Cc2c[nH]c3ccccc23)NC(=O)[C@@H]2CNCCN2C(=O)[C@H](Cc2ccncc2)NC1=O [SEQ ID NO. 251] ({CH2CO}-[Nle][4Pal][Pip(4-aza)]W[NMeE]N[4Pal][Trp(7-Cl)][αMeS][Phe(4-COOH)][Phe(4-COOH)][Sar][Trp(βS-Me,7-OMe)]C-NH2; thioether N-14)	2.7 nM	–	–	0.5 nM	1.17 nM

— patent US20240287138A1, “CYCLIC PEPTIDES FOR INHIBITING TNF RECEPTOR 1 ACTIVITY” (Merck Sharp & Dohme LLC, priority 2023, published 2024)
